We go through 22 compounds from patent US9540380B2, “Imidazotriazinone compounds” (Ironwood Pharmaceuticals, Inc., priority 2010, dated 2017).

The assay concerns the target T1, PDE9A2 (Homo sapiens, UniProt O76083).
T1 construct: purchased Reaction Biology Corporation, Malvern, Pa
The assay can be described thus: Phosphodiesterase Enzyme Screening Assay, PDE9A2 (Caliper LabChip mobility-shift). It is filed as biochemical. Conditions: 10 concentrations, 4.0 μM cGMP substrate, 1 hour at R.T.; read-out: Band (PDE9A2 IC50). An excerpt: Compounds of the invention were screened against PDE1A, PDE1B, PDE2A, PDE3A, PDE3B, PDE4A1A, PDE4B1, PDE4D3, PDE5A1, PDE6C, PDE7A, PDE8A1, PDE9A2, PDE10A2 AND PDE11A isoforms of the phosphodiesterase enzyme to determine activity and overall selectivity through comparative analysis. The assay generally consists of testing the compounds of the invention at 10 concentrations. Where 8-methoxy-IBMX and Zaprinast were used as reference inhibitors.
The phosphodiesterase enzyme isoforms were obtained from a commercial retailer (Reaction Biology Corporation, Malvern, Pa.) for use in the instant screening assay.
The analysis was completed using the Caliper LabChip 3000 and a 12-sipper LabChip. LabChip assays are separations-based, meaning that the product and substrate are electrophoretically separated, thereby minimizing interferences and yielding the highest data quality available on any screening platform. Z′ factors for both the EZ Reader and LC3000 enzymatic assays are routinely in the 0.8 to 0.9 range. High Z′ values, few false positives, few false negatives and analytical quality reproducibility are the reasons cited for the increasing reliance on the LabChip assays.
The off-chip incubation mobility-shift phosphodiesterase assay uses a microfluidic chip to measure the conversion of a fluorescent cyclic AMP substrate to a 5′-AMP product, or a cyclic GMP substrate to a 5′-GMP product. The reaction mixture, from a microtiter plate well, is introduced through a capillary sipper onto the chip, where the fluorescent substrate and product are separated by electrophoresis and detected via laser-induced fluorescence. […] The precision of microfluidics allows researchers to detect subtle interactions between drug candidates and therapeutic targets. The technology is able to detect both strong and weak inhibitors with high accuracy, and routinely identifies drug candidates that conventional techniques miss.
Reactions were carried out in 100 mM HEPES (pH 7.5), 5 mM MgCl2, 1 mM DTT, 0.003% Brij, 4.0 μM cGMP substrate. The reaction was started by addition of cGMP or cAMP and incubated for 1 hour at R.T. The reaction was terminated by the addition of stop buffer containing 100 mM HEPES (pH 7.5), 15 mM EDTA, 0.015% Brij-35, 5% DMSO. Cyclic AMP/GMP substrate and 5′-AMP/5′-GMP product were separated by charge using electrophoretic mobility shift. Product formed was compared to control wells to determine inhibition or enhancement of enzyme activity.
One or more reference compounds, depending on phosphodiesterase isoform, selected from 8-methoxy-IBMX, Zaprinast, Trequinsin, Pentoxifyline, Rolipram, and Vinpocetine, Dipyridamole, and BRL-50481 were run alongside client samples to ensure data quality. The resulting IC50 is compared against the historical average and must be within 3-fold of this average.
Data points were averages of quadruplicate wells and error bars represented the SEM for each point. IC50s were determined using GraphPad Prism Version 5.01 and the log (inhibitor) vs. response variable slope curve fit.

Molecules are shown by their SMILES. A value given as a limit tells only on which side of the number the result lay.

By IC50 is commonly meant the concentration that inhibits the measured activity by half.

T1 sequence (O76083 1-533 isoform O76083-2): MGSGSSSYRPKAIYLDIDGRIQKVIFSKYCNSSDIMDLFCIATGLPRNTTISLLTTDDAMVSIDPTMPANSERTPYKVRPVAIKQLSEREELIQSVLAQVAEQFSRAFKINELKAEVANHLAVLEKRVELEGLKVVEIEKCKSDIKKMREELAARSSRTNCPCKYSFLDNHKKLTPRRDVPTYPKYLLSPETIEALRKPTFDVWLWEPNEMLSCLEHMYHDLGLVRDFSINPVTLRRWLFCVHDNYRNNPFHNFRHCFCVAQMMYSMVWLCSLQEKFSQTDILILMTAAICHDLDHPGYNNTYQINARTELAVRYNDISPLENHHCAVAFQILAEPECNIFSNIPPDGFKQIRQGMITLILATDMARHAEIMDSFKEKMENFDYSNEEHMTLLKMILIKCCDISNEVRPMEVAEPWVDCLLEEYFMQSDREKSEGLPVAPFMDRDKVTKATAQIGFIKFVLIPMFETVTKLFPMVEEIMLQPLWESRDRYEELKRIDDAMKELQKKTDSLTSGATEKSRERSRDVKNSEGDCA

Regarding `CCS(=O)(=O)N1CCC(c2ncc3c(=O)[nH]c([C@@H]4CN(Cc5ccccc5)C[C@H]4C)nn23)CC1` (single isomer, unassigned) [(+)-2-((3,4-trans)-1-benzyl-4-methylpyrrolidin-3-yl)-7-(1-(ethylsulfonyl)piperidin-4-yl)imidazo[5,1-f][1,2,4]triazin-4(3H)-one], the half-inhibitory concentration (IC50) is under 1 µM.
As for `C[C@@H]1CN(Cc2ccc3nccn3n2)C[C@H]1c1nn2c(C3CCOCC3)ncc2c(=O)[nH]1` (single isomer, unassigned) [(+)-2-((3,4-trans)-1-(imidazo[1,2-b]pyridazin-6-ylmethyl)-4-methylpyrrolidin-3-yl)-7-(tetrahydro-2H-pyran-4-yl)imidazo[5,1-f][1,2,4]triazin-4(3H)-one], the figure is under 1 µM.
As for `CC1CN(Cc2ccccc2)CC1c1nn2c(C34CC5CC(CC(C5)C3)C4)ncc2c(=O)[nH]1` (single isomer, unassigned; (+)), the figure is under 1 µM; as for `CC1CN([C@@H](C)c2ccccc2)CC1c1nn2c(C3CCOCC3)ncc2c(=O)[nH]1` (single isomer, unassigned; (+)), under 1 µM.
`C[C@@H]1CN(Cc2ccccc2)C[C@H]1c1nn2c(C(C)(C)O)ncc2c(=O)[nH]1` (single isomer, unassigned) [(+)-2-((3,4-trans)-1-benzyl-4-methylpyrrolidin-3-yl)-7-(2-hydroxypropan-2-yl)imidazo[5,1-f][1,2,4]triazin-4(3H)-one]: the IC50 lay within 1 to 10 µM.
In the case of `C[C@@H]1CN(Cc2ccccc2)C[C@H]1c1nn2c(C3CCC(F)(F)CC3)ncc2c(=O)[nH]1` (single isomer, unassigned) [(−)-2-((3,4-trans)-1-benzyl-4-methylpyrrolidin-3-yl)-7-(4,4-difluorocyclohexyl)imidazo[5,1-f][1,2,4]triazin-4(3H)-one] it was under 1 µM; in that of `CC(=O)N1CCC(c2ncc3c(=O)[nH]c([C@@H]4CN(Cc5ncccn5)C[C@H]4C)nn23)CC1` (single isomer, unassigned) [(+)-7-(1-acetylpiperidin-4-yl)-2-((3,4-trans)-4-methyl-1-(pyrimidin-2-ylmethyl)pyrrolidin-3-yl)imidazo[5,1-f][1,2,4]triazin-4(3H)-one], 1 to 10 µM; in that of `C[C@@H]1CN(Cc2cn3ncccc3n2)C[C@H]1c1nn2c(C3CCOCC3)ncc2c(=O)[nH]1` (single isomer, unassigned) [(−)-2-((3,4-trans)-1-(imidazo[1,2-b]pyridazin-2-ylmethyl)-4-] [(−)-2-((3,4-trans)-1-(imidazo[1,2-b]pyridazin-2-ylmethyl)-4-methylpyrrolidin-3-yl)-7-(tetrahydro-2H-pyran-4-yl)imidazo[5,1-f][1,2,4]triazin-4(3H)-one], under 1 µM.
As for `C[C@@H]1CN(Cc2cn3ncccc3n2)C[C@H]1c1nn2c(C3CCOCC3)ncc2c(=O)[nH]1` (single isomer, unassigned) [(+)-2-((3,4-trans)-1-(imidazo[1,2-b]pyridazin-2-ylmethyl)-4-methylpyrrolidin-3-yl)-7-(tetrahydro-2H-pyran-4-yl)imidazo[5,1-f][1,2,4]triazin-4(3H)-one], the figure is under 1 µM; as for `CC(=O)N1CCC(c2ncc3c(=O)[nH]c([C@@H]4CN(Cc5ncccn5)C[C@H]4C)nn23)CC1` (single isomer, unassigned) [(−)-7-(1-acetylpiperidin-4-yl)-2-((3,4-trans)-4-methyl-1-(pyrimidin-2-ylmethyl)pyrrolidin-3-yl)imidazo[5,1-f][1,2,4]triazin-4(3H)-one], over 10 µM; as for `C[C@@H]1CN(Cc2ccccc2)C[C@H]1c1nn2c(C(C)(C)O)ncc2c(=O)[nH]1` (single isomer, unassigned) [(−)-2-((3,4-trans)-1-benzyl-4-methylpyrrolidin-3-yl)-7-(2-hydroxypropan-2-yl)imidazo[5,1-f][1,2,4]triazin-4(3H)-one], over 10 µM.
In the case of `C[C@@H]1CN(Cc2ccc(F)cc2)C[C@H]1c1nn2c(C3CCOCC3)ncc2c(=O)[nH]1` (single isomer, unassigned) [(+)-2-((3,4-trans)-1-(4-fluorobenzyl)-4-methylpyrrolidin-3-yl)-7-(tetrahydro-2H-pyran-4-yl)imidazo[5,1-f][1,2,4]triazin-4(3H)-one] it was under 1 µM; in that of `C[C@@H]1CN(Cc2cnccn2)C[C@H]1c1nn2c(C3CCOCC3)ncc2c(=O)[nH]1` (single isomer, unassigned) [(−)-2-((3,4-trans)-4-methyl-1-(pyrazin-2-ylmethyl)pyrrolidin-3-yl)-7-(tetrahydro-2H-pyran-4-yl)imidazo[5,1-f][1,2,4]triazin-4(3H)-one], 1 to 10 µM.
On to `C[C@@H]1CN(Cc2cnccn2)C[C@H]1c1nn2c(C3CCOCC3)ncc2c(=O)[nH]1` (single isomer, unassigned) [(+)-2-((3,4-trans)-4-methyl-1-(pyrazin-2-ylmethyl)pyrrolidin-3-yl)-7-(tetrahydro-2H-pyran-4-yl)imidazo[5,1-f][1,2,4]triazin-4(3H)-one], for which the IC50 was under 1 µM.
In the case of `CCS(=O)(=O)N1CCC(c2ncc3c(=O)[nH]c([C@@H]4CN(Cc5ncccn5)C[C@H]4C)nn23)CC1` (single isomer, unassigned) [(+)-7-(1-(ethylsulfonyl)piperidin-4-yl)-2-((3,4-trans)-4-methyl-1-(pyrimidin-2-ylmethyl)pyrrolidin-3-yl)imidazo[5,1-f][1,2,4]triazin-4(3H)-one] it was 1 to 10 µM; in that of `Cc1ccc(Cl)cc1-c1ncc2c(=O)[nH]c([C@@H]3CNC[C@H]3C)nn12` (relative stereo) [(−)-7-(5-chloro-2-methylphenyl)-2-((3,4-trans)-4-methylpyrrolidin-3-yl)imidazo[5,1-f][1,2,4]triazin-4(3H)-one], 1 to 10 µM; in that of `C[C@@H]1CN(Cc2ccccc2)C[C@H]1c1nn2c(-c3ccoc3)ncc2c(=O)[nH]1` (single isomer, unassigned) [(−)-2-((3,4-trans)-1-benzyl-4-methylpyrrolidin-3-yl)-7-(furan-3-yl)imidazo[5,1-f][1,2,4]triazin-4(3H)-one], 1 to 10 µM.
In the case of `C[C@@H]1CN(Cc2ncccn2)C[C@H]1c1nn2c(C3CCOCC3)ncc2c(=O)[nH]1` (single isomer, unassigned) [(+)-2-((3,4-trans)-4-methyl-1-(pyrimidin-2-ylmethyl)pyrrolidin-3-yl)-7-(tetrahydro-2H-pyran-4-yl)imidazo[5,1-f][1,2,4]triazin-4(3H)-one] it was under 1 µM; in that of `Cc1cc(F)ccc1-c1ncc2c(=O)[nH]c([C@@H]3CN(Cc4ncccn4)C[C@H]3C)nn12` (single isomer, unassigned) [(−)-7-(4-fluoro-2-methylphenyl)-2-((3,4-trans)-4-methyl-1-(pyrimidin-2-ylmethyl)pyrrolidin-3-yl)imidazo[5,1-f][1,2,4]triazin-4(3H)-one], under 1 µM.
`C[C@@H]1CN(Cc2ccc3nccn3n2)C[C@H]1c1nn2c(C3CCOCC3)ncc2c(=O)[nH]1` (single isomer, unassigned) [(−)-2-((3,4-trans)-1-(imidazo[1,2-b]pyridazin-6-ylmethyl)-4-methylpyrrolidin-3-yl)-7-(tetrahydro-2H-pyran-4-yl)imidazo[5,1-f][1,2,4]triazin-4(3H)-one]: the IC50 was under 1 µM.
In the case of `C[C@@H]1CN(Cc2ncccn2)C[C@H]1c1nn2c(C3CCOCC3)ncc2c(=O)[nH]1` (single isomer, unassigned) [(−)-2-((3,4-trans)-4-methyl-1-(pyrimidin-2-ylmethyl)pyrrolidin-3-yl)-7-(tetrahydro-2H-pyran-4-yl)imidazo[5,1-f][1,2,4]triazin-4(3H)-one] it was over 10 µM.
In the case of `CCS(=O)(=O)N1CCC(c2ncc3c(=O)[nH]c([C@@H]4CN(Cc5ccccc5)C[C@H]4C)nn23)CC1` (single isomer, unassigned) [(−)-2-((3,4-trans)-1-benzyl-4-methylpyrrolidin-3-yl)-7-(1-(ethylsulfonyl)piperidin-4-yl)imidazo[5,1-f][1,2,4]triazin-4(3H)-one] it was over 10 µM.
